The values that follow come from patent US6491922B1, “Methods and compounds for treating autoimmune and vascular disease” (Cornell Research Foundation, Inc., priority 1996, dated 2002).

“Also recorded” adds a separate entry of the source.

Test [1] relates to IL-1β mRNA. The experiment in a line: IL-1β mRNA stability with actinomycin D in THP-1 cells. The format is cell-based, human. As to conditions: 2 μM LPG simultaneous with LPS 2 μg/ml, actinomycin D after 2 h. How it is done:
THP-1 cells (10^7 cells/condition) were stimulated with 2 μg/ml LPS or 2 μg/ml LPS with 2 μM LPG at time 0 h. Actinomycin D (6 μg/ml) was added to all conditions 2 h later and cells were harvested by gentle scraping for extraction of total RNA at the designated time. The 2 h time point after LPS or LPS plus LPG treatment was used as the respective reference for comparison with residual IL-1β mRNA at the later time points. For each condition and time, the total RNA separated on agarose gel, transferred and immobilized on nylon membrane were probed with ^32P-labeled IL-1β cDNA or GAPDH cDNA.

The test system of another test is VCAM-1. As to the kind of experiment: Endotoxin-induced VCAM-1 expression on endothelial cells (FACS). The format is cell-based, human.
In test [2] the test system is DNA sequence from the −310 to −57 region of the IL-1β promoter. As to the kind of experiment: Gel shift assay of nuclear protein binding to IL-1β promoter DNA. The format is cell-based, human. As to conditions: THP-1 cells treated with LPG; preliminary data. In general terms: Mobility shift assays separate free from complexed probe on a gel.
Test [3] deals with IL-1β mRNA. As to the kind of experiment: Northern analysis of IL-1β mRNA induction in peripheral blood monocytes. As to conditions: 2 μM LPG pretreatment 2 h, N=2.
Source text: Human peripheral blood cells from the New York Blood Center (New York, N.Y.) obtained by Hypaque-Ficoll density centrifugation and adherence to plastic are 99% monocytes. […] Human monocytic cells THP-1 (TIB-202) and plasmid containing glyceraldehyde-3-phosphate dehydrogenase [GAPDH] cDNA (cat. #57090) were obtained from American Type Culture Collection (ATCC), Rockville, MdD. […] RPMI-1640, fetal bovine serum, L-glutamine, and penicillin-streptomycin (Gibco, Grand Island, N.Y.); β-mercaptoethanol, phorbol 12-myristate 13-acetate (PMA) and LPS from Escherichia coli serotype 055: B5 were purchased from the Sigma Chemical Co., St. Louis, Miss.
Human monocytes were cultured in endotoxin free complete medium as previously described. […]
Cells treated with or without LPG and/or inducers of IL-1β were harvested by gentle scrapping using a rubber policeman and sedimented by centrifugation at 500 g for 5 minutes in a microfuge. Total RNA was extracted using RNA STAT-60 solution (TEL-TEST “B” Inc., Friendswood, Tex.), based on a single step method for RNA isolation (P. Chomczynski and N. Sacchi, “Single-step Method of RNA Isolation by Acid Guanidinium Thiocyanate-phenol-chloroform Extraction,” Anal. Biochem., 162:156-59 (1987), hereby incorporated by reference), and quantitated by spectrophotometry.
The subject of a further test is E-selectin. The experiment in a line: Endotoxin-induced E-selectin expression on endothelial cells (FACS). The format is cell-based, human. As to conditions: LPG pretreatment 1 h. As for the experimental part:
Endothelial cells pretreated with LPG at indicated amounts for 1 h were subsequently challenged with endotoxin. Washed cells incubated with monoclonal antibody specific for E-selectin or ICAM-1 were counter stained with fluorescein labeled anti-murine antibody, fixed and analyzed by FACS.

For the next test, the system named is TNF-α transcription. As to the kind of experiment: Nuclear run-on assay, TNF-α transcription. As to conditions: LPG 1 μM pretreatment; LPS 1 μg/ml. Type of test: cell-based, human.
Test [4] relates to HIV p24 antigen, U1 cells. As to the kind of experiment: HIV p24 antigen production in chronically HIV-infected U1 cells. Type of test: cell-based. As to conditions: 72 h. How it is done: LPG, the major surface molecule of Leishmania, has macrophage deactivating functions. Based on the ability of LPG to suppress the generation of ROI and cytokine gene expression, we evaluated the potential that LPG may similarly suppress HIV production. FIGS. 27A-D illustrate the effect of 2 μM LPG pretreatment for 2 h on the induction HIV from chronically HIV-infected monocytic and T cell lines respectively, U1 and ACH-2 cells. LPG treatment of U1 cells for 72 h inhibited basal production of HIV p24 antigen at basal and induction in response to PMA, TNF-α and LPS by 90%, 82%, 60% and 66%, respectively (FIGS. 27A, B). The suppression of HIV p24 antigen production was time-dependent (FIG. 27B). […] The inhibition was also time-dependent. The results are the mean of 2 separate experiments and the SD was less than 10%.

The test system of another test is NOS mRNA. The format is cell-based, human. As to conditions: IFN-γ-primed macrophages; LPG 2 μM pretreatment; RT/PCR.
A further test deals with THP-1 cells. The experiment in a line: LPG and LPG fragment binding to THP-1 cells (indirect immunofluorescence, FACS). Further details: species or system human. As to conditions: LPG 1 μM.

As to lipophosphoglycan [LPG], in the test with IL-1β mRNA [1], the “enhancement of rate of IL-1β mRNA degradation” value was “approximately 30%”. Further, in the test on VCAM-1, the “effect on endotoxin-mediated expression of VCAM-1” value is given as “strongly suppressed”. In [2], the “induction of nuclear protein(s) binding to promoter DNA sequence” value is given as “induced the presence of a nuclear protein(s) that bound a DNA sequence derived from this region”. For the same substance, in the test on IL-1β mRNA [3] (LPS 2 μg/ml), the “inhibition of LPS induction of IL-1β mRNA” value is listed as “greater than 90%”. In addition, the “inhibition of S. epidermidis induction of IL-1β mRNA” value in the test with IL-1β mRNA [3] was “greater than 80%”. Further, in the test on E-selectin, the “effect on endotoxin-mediated expression of E-selectin” value is given as “strongly suppressed; also recorded: blockage or suppression”. Further, the “suppression of endotoxin-mediated TNF-α transcription” value in the test on TNF-α transcription is listed as −70%. Besides, in [4] (2 μM LPG pretreatment 2 h), the “inhibition of HIV p24 antigen induction in response to LPS” value is given as 66%, the “inhibition of HIV p24 antigen induction in response to PMA” value is 82% and the “inhibition of HIV p24 antigen induction in response to TNF-α” value amounted to 60%. Further, in test [4] (2 μM LPG), the “inhibition of basal production of HIV p24 antigen” value came to 90%. Also, in the test on NOS mRNA, the “effect on M. tuberculosis-induction of NOS mRNA” value is on record as “suppressed”. Moreover, the “time at which LPG binding was obvious” value in the test with THP-1 cells came to 16 min. Besides, in the test with THP-1 cells (1 h), the LPG binding result is given as “significant LPG was bound”.
